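At the GI50, growth is halved. TGI marks complete inhibition of growth.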
How the values were obtained:
Test in all cases: DTP human tumour cell line panel, 384-well format
[1] = test system: HS 578T breast
[2] = test system: NCI-H460 NSCLC
[3] = test system: A549 NSCLC
[4] = test system: NCI-H522 lung
[5] = test system: OVCAR-5 ovarian
[6] = test system: OVCAR-3 ovarian
[7] = test system: HOP-92 NSCLC
[8] = test system: UO-31 renal
[9] = test system: RXF 393 renal
[10] = test system: HCC-2998 colon
[11] = test system: SR leukemia
[12] = test system: IGROV1 ovarian
[13] = test system: HT29 colon
[14] = test system: MDA-MB-468 breast
[15] = test system: RPMI-8226 leukemia
[16] = test system: DU-145 prostate
[17] = test system: KM12 colon
[18] = test system: MDA-MB-231 breast
[19] = test system: HOP-62 NSCLC
[20] = test system: HCT-15 colon
[21] = test system: U251 glioblastoma
[22] = test system: SF-539 CNS
[23] = test system: CCRF-CEM leukemia
[24] = test system: OVCAR-4 ovarian
[25] = test system: COLO 205 colon
[26] = test system: T-47D breast
[27] = test system: EKVX NSCLC
[28] = test system: MCF7 breast
[29] = test system: MOLT-4 leukemia
[30] = test system: PC-3 prostate
[31] = test system: SNB-75 CNS
[32] = test system: HCT-116 colon
[33] = test system: M14 melanoma
[34] = test system: SF-295 CNS
[35] = test system: NCI-H226 lung
[36] = test system: CAKI-1 renal
[37] = test system: SK-OV-3 ovarian
[38] = test system: SW-620 colon
[39] = test system: SNB-19 CNS
[40] = test system: NCI-H322M lung
[41] = test system: MALME-3M melanoma
[42] = test system: BT-549 breast
[43] = test system: SK-MEL-28 melanoma
[44] = test system: NCI-H23 lung
[45] = test system: 786-0 renal
[46] = test system: NCI/ADR-RES ovarian
[47] = test system: LOX IMVI melanoma
[48] = test system: MDA-MB-435 melanoma
[49] = test system: SF-268 CNS
[50] = test system: HL-60(TB) leukemia
[51] = test system: OVCAR-8 ovarian
[52] = test system: SK-MEL-5 melanoma
[53] = test system: SN12C renal
[54] = test system: ACHN renal
[55] = test system: K-562 leukemia
[56] = test system: A498 renal
[57] = test system: UACC-257 melanoma
[58] = test system: TK-10 renal

Cc1noc(C)c1-c1ccc2[nH]c(=O)n3c2c1OC[C@@H]3c1ccccn1
GI50 [1]: 152 nM
TGI [1]: 1600 nM
GI50 [2]: 2190 nM
TGI [2]: > 100000 nM
GI50 [3]: 656 nM
TGI [3]: > 100000 nM
GI50 [4]: 76.6 nM
TGI [4]: 4800 nM
GI50 [5]: 529 nM
TGI [5]: > 100000 nM
GI50 [6]: 227 nM
TGI [6]: > 100000 nM
GI50 [7]: 241 nM
TGI [7]: > 100000 nM
GI50 [8]: 722 nM
TGI [8]: > 100000 nM
GI50 [9]: 483 nM
TGI [9]: 11000 nM
GI50 [10]: 127 nM
TGI [10]: 2110 nM
GI50 [11]: 52.3 nM
TGI [11]: 2040 nM
GI50 [12]: 532 nM
TGI [12]: 53000 nM
GI50 [13]: 371 nM
TGI [13]: > 100000 nM
GI50 [14]: 241 nM
TGI [14]: 8120 nM
GI50 [15]: 133 nM
TGI [15]: 533 nM
GI50 [16]: 14200 nM
TGI [16]: > 100000 nM
GI50 [17]: 1360 nM
TGI [17]: > 100000 nM
GI50 [18]: 605 nM
TGI [18]: > 100000 nM
GI50 [19]: 304 nM
TGI [19]: 62200 nM
GI50 [20]: 240 nM
TGI [20]: 12000 nM
GI50 [21]: 2560 nM
TGI [21]: > 100000 nM
GI50 [22]: 449 nM
TGI [22]: 8790 nM
GI50 [23]: 584 nM
TGI [23]: > 100000 nM
GI50 [24]: 107 nM
TGI [24]: 495 nM
GI50 [25]: 527 nM
TGI [25]: > 100000 nM
GI50 [26]: 318 nM
TGI [26]: 47800 nM
GI50 [27]: > 100000 nM
TGI [27]: > 100000 nM
GI50 [28]: 125 nM
TGI [28]: > 100000 nM
GI50 [29]: 421 nM
TGI [29]: 11900 nM
GI50 [30]: 245 nM
TGI [30]: > 100000 nM
GI50 [31]: 1270 nM
TGI [31]: > 100000 nM
GI50 [32]: 501 nM
TGI [32]: > 100000 nM
GI50 [33]: 720 nM
TGI [33]: > 100000 nM
GI50 [34]: 144 nM
TGI [34]: 41800 nM
GI50 [35]: 1430 nM
TGI [35]: > 100000 nM
GI50 [36]: 243 nM
TGI [36]: > 100000 nM
GI50 [37]: 244 nM
TGI [37]: 21300 nM
GI50 [38]: > 100000 nM
TGI [38]: > 100000 nM
GI50 [39]: 1870 nM
TGI [39]: > 100000 nM
GI50 [40]: 591 nM
TGI [40]: > 100000 nM
GI50 [41]: 398 nM
TGI [41]: 32300 nM
GI50 [42]: 293 nM
TGI [42]: 25200 nM
GI50 [43]: 813 nM
TGI [43]: > 100000 nM
GI50 [44]: 483 nM
TGI [44]: > 100000 nM
GI50 [45]: 749 nM
TGI [45]: > 100000 nM
GI50 [46]: 653 nM
TGI [46]: 18500 nM
GI50 [47]: 277 nM
TGI [47]: 1040 nM
GI50 [48]: 13700 nM
TGI [48]: > 100000 nM
GI50 [49]: 3010 nM
TGI [49]: > 100000 nM
GI50 [50]: 55.6 nM
TGI [50]: 170 nM
GI50 [51]: 473 nM
TGI [51]: > 100000 nM
GI50 [52]: 198 nM
TGI [52]: 9840 nM
GI50 [53]: 3690 nM
TGI [53]: > 100000 nM
GI50 [54]: 1220 nM
TGI [54]: > 100000 nM
GI50 [55]: 436 nM
TGI [55]: > 100000 nM
GI50 [56]: 420 nM
TGI [56]: > 100000 nM
GI50 [57]: 925 nM
TGI [57]: > 100000 nM
GI50 [58]: 265 nM
TGI [58]: 23100 nM

From PubChem BioAssay (NCI)
